Source: US20080267942A1, “BENZAZEPIN-2(1H)-ONE DERIVATIVES” (Pfizer Limited, priority 2006, published 2008)
Counter-ions that a name gives are not always drawn.

How the values were obtained:
[1] = biological target: T1, bovine beta-2 adrenoceptor (Bos taurus, UniProt Q28044); test: cAMP assay in CHO cells transfected with the bovine beta-2 adrenoceptor (DiscoveRx Hit Hunter cAMP II); assay type: cell-based; settings: CHO cells transfected with bovine beta-2 adrenoceptor, 30 minutes incubation with compound
T1 construct: expressed in transfected cells; host or cells: CHO cells
Protocol: (§1) CHO cells transfected with the bovine or porcine beta-2 adrenceptors were maintained in culture in DMEM/HAMS F12+10% FBS+2 mM glutamine+500 μg/ml geneticin (for the porcine receptor the medium was supplement with 1.5 mM HEPES) at 37° C. with a 5% CO2 atmosphere.
(§2) Cells were plated into 96 well viewplates in medium and incubated overnight at 37° C. with a 5% CO2 atmosphere. The cells were pre-incubated with 0.5 mM IBMX in PBS for 30 minutes prior to incubation with increasing concentrations of experimental compound (5×10^−12 to 10^−5M) for 30 minutes at 37° C. with a 5% CO2 atmosphere. At the end of the incubation time the compound was removed and the cells assayed for cAMP using the DiscoveRx Hit Hunter cAMP II™ assay kit.
(§3) Duplicate samples were run for each experimental compound and the data generated was analysed using EC50 analysis software in Graphpad Prism.

[2] = biological target: T2, porcine beta-2 adrenoceptor (Sus scrofa, UniProt Q28997); test: cAMP assay in CHO cells transfected with the porcine beta-2 adrenoceptor (DiscoveRx Hit Hunter cAMP II); assay type: cell-based; settings: CHO cells transfected with porcine beta-2 adrenoceptor, 30 minutes incubation with compound
T2 construct: expressed in transfected cells; host or cells: CHO cells
Protocol: as §1, §2, §3

T1 sequence (Q28044 whole entry): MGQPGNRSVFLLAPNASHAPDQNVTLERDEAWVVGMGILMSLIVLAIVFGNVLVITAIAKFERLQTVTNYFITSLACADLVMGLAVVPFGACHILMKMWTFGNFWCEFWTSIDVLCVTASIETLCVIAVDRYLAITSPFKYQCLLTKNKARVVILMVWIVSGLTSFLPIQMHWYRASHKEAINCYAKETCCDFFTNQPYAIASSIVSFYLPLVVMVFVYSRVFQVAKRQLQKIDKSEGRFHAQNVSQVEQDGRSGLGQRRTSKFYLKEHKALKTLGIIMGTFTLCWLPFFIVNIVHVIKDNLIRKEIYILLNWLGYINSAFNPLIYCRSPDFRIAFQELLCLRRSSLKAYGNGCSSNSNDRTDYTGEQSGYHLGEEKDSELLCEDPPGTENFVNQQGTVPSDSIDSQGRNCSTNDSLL
T2 sequence (Q28997 whole entry): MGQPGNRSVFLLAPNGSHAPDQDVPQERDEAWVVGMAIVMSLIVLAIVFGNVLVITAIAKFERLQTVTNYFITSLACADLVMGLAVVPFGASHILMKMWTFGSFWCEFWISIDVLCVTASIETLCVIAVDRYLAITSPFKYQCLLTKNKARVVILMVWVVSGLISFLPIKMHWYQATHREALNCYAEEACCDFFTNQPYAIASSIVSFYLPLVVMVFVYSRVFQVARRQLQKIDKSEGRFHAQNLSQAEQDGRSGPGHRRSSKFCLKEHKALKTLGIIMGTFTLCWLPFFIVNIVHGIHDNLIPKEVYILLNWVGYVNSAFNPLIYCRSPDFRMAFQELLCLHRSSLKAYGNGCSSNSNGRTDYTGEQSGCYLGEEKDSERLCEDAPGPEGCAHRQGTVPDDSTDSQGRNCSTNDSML

Row | EC50 [1] [nM] | EC50 [2] [nM] | Structure (SMILES)
1 | 0.5 | 1.4 | CC(CCc1cc(F)cc2cc[nH]c12)N[C@@H]1CCn2c(=O)[nH]c3cccc(c32)[C@H]1O (mixture of isomers) [Example 1a, 6-{[3-(5-Fluoro-1H-indol-7-yl)-1-methylpropyl]amino}-7-hydroxy-4,5,6,7-tetrahydroimidazo[4,5,1-jk][1]benzazepin-2(1H)-one]
2 | 0.7 | 1 | CC(CCc1cc(F)cc2cc[nH]c12)N[C@@H]1CCn2c(=O)[nH]c3cccc(c32)[C@H]1O (mixture of isomers) [Example 1b, 6-{[3-(5-Fluoro-1H-indol-7-yl)-1-methylpropyl]amino}-7-hydroxy-4,5,6,7-tetrahydroimidazo[4,5,1-jk][1]benzazepin-2(1H)-one]
3 | 171 | 31 | CC(CCc1ccc(C(=O)O)o1)N[C@@H]1CCn2c(=O)[nH]c3cccc(c32)[C@H]1O (mixture of isomers) [Example 2, 5-(3-{[7-Hydroxy-2-oxo-1,2,4,5,6,7-hexahydroimidazo[4,5,1-jk][1]benzazepin-6-yl]amino}butyl)-2-furoic acid]
4 | 5.5 | 3 | Cc1[nH]c2ccccc2c1CCC(C)N[C@@H]1CCn2c(=O)[nH]c3cccc(c32)[C@H]1O (mixture of isomers) [Example 3b, 7-Hydroxy-6-{[1-methyl-3-(2-methyl-1H-indol-3-yl)propyl]amino}-4,5,6,7-tetrahydroimidazo[4,5,1-jk][1]benzazepin-2(1H)-one]
5 | 103 | 143 | C[C@@H](CCc1c[nH]c2ccccc12)N[C@@H]1CCn2c(=O)[nH]c3cccc(c32)[C@H]1O (racemic) [Example 4c, 7-Hydroxy-6-{[3-(1H-indol-3-yl)-1-methylpropyl]amino}-4,5,6,7-tetrahydroimidazo[4,5,1-jk][1]benzazepin-2(1H)-one]
6 | 1.1 | 2.5 | CC(CCc1c[nH]c2ccc(F)cc12)N[C@@H]1CCn2c(=O)[nH]c3cccc(c32)[C@H]1O (mixture of isomers) [Example 5b, Hydrochloride salt of 6-{[3-[5-Fluoro-1H-indol-3-yl]-1-methylpropyl]amino}-7-hydroxy-4,5,6,7-tetrahydroimidazo[4,5,1-jk][1]benzazepin-2(1)-one]
7 | 4.6 | 5.5 | CC(CCc1cccc(=O)[nH]1)N[C@@H]1CCn2c(=O)[nH]c3cccc(c32)[C@H]1O (mixture of isomers) [Example 7a, 7-Hydroxy-6-{[1-methyl-3-(6-oxo-1,6-dihydropyridin-2-yl)propyl]amino}-4,5,6,7-tetrahydroimidazo[4,5,1-jk][1]benzazepin-2(1H)-one]
8 | 3.8 | – | CC(CCc1cccc(=O)[nH]1)N[C@@H]1CCn2c(=O)[nH]c3cccc(c32)[C@H]1O (mixture of isomers) [Example 7c, 7-Hydroxy-6-{[1-methyl-3-(6-oxo-1,6-dihydropyridin-2-yl)propyl]amino}-4,5,6,7-tetrahydroimidazo[4,5,1-jk][1]benzazepin-2(1H)-one]
9 | 114 | 6.1 | CC(CC(C)(C)c1c[nH]c2ccccc12)N[C@@H]1CCn2c(=O)[nH]c3cccc(c32)[C@H]1O (mixture of isomers) [Example 8, 7-Hydroxy-6-{[3-(1H-indol-3-yl)-1,3-dimethylbutyl]amino}-4,5,6,7-tetrahydroimidazo[4,5,1-jk][1]benzazepin-2(1H)-one]
10 | 8 | 5.8 | CC(CCc1cn(C)c2ccccc12)N[C@@H]1CCn2c(=O)[nH]c3cccc(c32)[C@H]1O (mixture of isomers) [Example 14b, 7-Hydroxy-6-{[1-methyl-3-(1-methyl-1H-indol-3-yl)propyl]amino}-4,5,6,7-tetrahydroimidazo[4,5,1-jk][1]benzazepin-2(1H)-one]
11 | 5.5 | 4.2 | CC(CCc1cn(C)c2ccccc12)N[C@@H]1CCn2c(=O)[nH]c3cccc(c32)[C@H]1O (mixture of isomers) [Example 14c, 7-Hydroxy-6-{[1-methyl-3-(1-methyl-1H-indol-3-yl)propyl]amino}-4,5,6,7-tetrahydroimidazo[4,5,1-jk][1]benzazepin-2(1H)-one]
12 | 25 | 33 | CC(CCc1c[nH]c2ccc(OCc3ccccc3)cc12)N[C@@H]1CCn2c(=O)[nH]c3cccc(c32)[C@H]1O (mixture of isomers) [Example 17, 6-({3-[5-(Benzyloxy)-1H-indol-3-yl]-1-methylpropyl}amino)-7-hydroxy-4,5,6,7-tetrahydroimidazo[4,5,1-jk][1]benzazepin-2(1H)-one]
13 | 218 | 98 | CC(CCc1cn(Cc2ccccc2)c2ccccc12)N[C@@H]1CCn2c(=O)[nH]c3cccc(c32)[C@H]1O (mixture of isomers) [Example 18, 6-{[3-(1-Benzyl-1H-indol-3-yl)-1-methylpropyl]amino}-7-hydroxy-4,5,6,7-tetrahydroimidazo[4,5,1-jk][1]benzazepin-2(1H)-one]
14 | 157 | 36 | CC(CC(C)(C)c1cn(C)c2ccccc12)N[C@@H]1CCn2c(=O)[nH]c3cccc(c32)[C@H]1O (mixture of isomers) [Example 20, 6-{[1,3-Dimethyl-3-(1-methyl-1H-indol-3-yl)butyl]amino}-7-hydroxy-4,5,6,7-tetrahydroimidazo[4,5,1-jk][1]benzazepin-2(1H)-one]
15 | 50 | 53 | COc1ccc2[nH]cc(CCC(C)N[C@@H]3CCn4c(=O)[nH]c5cccc(c54)[C@H]3O)c2c1 (mixture of isomers) [Example 22, 7-hydroxy-6-{[3-(5-methoxy-1H-indol-3-yl)-1-methylpropyl]amino}-4,5,6,7-tetrahydroimidazo[4,5,1-jk][1]benzazepin-2(1H)-one]
16 | 92 | 79 | CC(CCc1nccs1)N[C@@H]1CCn2c(=O)[nH]c3cccc(c32)[C@H]1O (mixture of isomers) [Example 24b, 7-Hydroxy-6-{[1-methyl-3-(1,3-thiazol-2-yl)propyl]amino}-4,5,6,7-tetrahydroimidazo[4,5,1-jk][1]benzazepin-2(1H)-one]

Row | EC50 [1] [nM] | EC50 [2] [nM] | Structure (SMILES)
17 | 2.9 | 4.2 | CC(CCc1cnc(Cl)s1)N[C@@H]1CCn2c(=O)[nH]c3cccc(c32)[C@H]1O (mixture of isomers) [Example 25, 6-{[3-(2-Chloro-1,3-thiazol-5-yl)-1-methylpropyl]amino}-7-hydroxy-4,5,6,7-tetrahydroimidazo[4,5,1-jk][1]benzazepin-2(1H)-one]
18 | 345 | 742 | CC(CCc1cscn1)N[C@@H]1CCn2c(=O)[nH]c3cccc(c32)[C@H]1O (mixture of isomers) [Example 26, 7-Hydroxy-6-{[1-methyl-3-(1,3-thiazol-4-yl)propyl]amino}-4,5,6,7-tetrahydroimidazo[4,5,1-jk][1]benzazepin-2(1H)-one]
19 | 77 | 53 | CC(CCc1ccncc1)N[C@@H]1CCn2c(=O)[nH]c3cccc(c32)[C@H]1O (mixture of isomers) [Example 27, 7-Hydroxy-6-[(1-methyl-3-pyridin-4-ylpropyl)amino]-4,5,6,7-tetrahydroimidazo[4,5,1-jk][1]benzazepin-2(1H)-one]
20 | 129 | 104 | Cc1ncc(CCC(C)N[C@@H]2CCn3c(=O)[nH]c4cccc(c43)[C@H]2O)s1 (mixture of isomers) [Example 28a, 7-Hydroxy-6-{[1-methyl-3-(2-methyl-1,3-thiazol-5-yl)propyl]amino}-4,5,6,7-tetrahydroimidazo[4,5,1-jk][1]benzazepin-2(1H)-one]
21 | – | 0.4 | CC(CCn1cnc2cc(F)cc(F)c21)N[C@@H]1CCn2c(=O)[nH]c3cccc(c32)[C@H]1O (single isomer, unassigned) [Example 69]
22 | – | 3.3 | Cc1nnsc1CCC(C)N[C@@H]1CCn2c(=O)[nH]c3cccc(c32)[C@H]1O (single isomer, unassigned) [Example 70]
23 | – | 15.1 | CC(CCn1cnnc1)N[C@@H]1CCn2c(=O)[nH]c3cccc(c32)[C@H]1O (single isomer, unassigned) [Example 71]
24 | – | 2.7 | CC(CCc1cncnc1)N[C@@H]1CCn2c(=O)[nH]c3cccc(c32)[C@H]1O (single isomer, unassigned) [Example 72]
25 | – | 0.8 | COc1cncc(CCC(C)N[C@@H]2CCn3c(=O)[nH]c4cccc(c43)[C@H]2O)c1 (single isomer, unassigned) [Example 73]
26 | – | 4.7 | CC(CCc1cnc(O)s1)N[C@@H]1CCn2c(=O)[nH]c3cccc(c32)[C@H]1O (single isomer, unassigned) [Example 74]
27 | – | 4.7 | CC(CCn1nnc2ccccc21)N[C@@H]1CCn2c(=O)[nH]c3cccc(c32)[C@H]1O (single isomer, unassigned) [Example 75]
28 | – | 2 | CC(CCn1cnc2cnccc21)N[C@@H]1CCn2c(=O)[nH]c3cccc(c32)[C@H]1O (single isomer, unassigned) [Example 76]
29 | – | 2.8 | CC(CCn1cnc2ncccc21)N[C@@H]1CCn2c(=O)[nH]c3cccc(c32)[C@H]1O (single isomer, unassigned) [Example 77]
30 | – | 1.2 | Cc1nc2ccccc2n1CCC(C)N[C@@H]1CCn2c(=O)[nH]c3cccc(c32)[C@H]1O (single isomer, unassigned) [Example 78]
31 | – | 1 | CC(CCn1cnc2cc(F)c(F)cc21)N[C@@H]1CCn2c(=O)[nH]c3cccc(c32)[C@H]1O (single isomer, unassigned) [Example 79]

Row | Structure (SMILES) | EC50 [1] [nM] | EC50 [2] [nM]
32 | CC(Cc1c[nH]c2ccccc12)N[C@@H]1CCn2c(=O)[nH]c3cccc(c32)[C@H]1O (stereo partly drawn) [Example 68, (6R,7R)-7-hydroxy-6-{[2-(1H-indol-3-yl)-1-methylethyl]amino}-4,5,6,7-tetrahydroimidazo[4,5,1-jk][1]benzazepin-2(1H)-one] | – | 4.9
